One block for each molecule: values may come before it. The source made the active and inactive calls. The calls are words filed in the database; no cut-off is given here.
Legend:
[1] = target: T1, Bromodomain-containing protein 3 (Homo sapiens, UniProt Q15059); test: Binding affinity to recombinant human BRD3 BD2 (306 to 417 residues) assessed as inhibition constant by fluorescence polarization binding assay
MM1.S [2] = test: Antiproliferative activity against human MM1.S cells assessed as cell growth inhibition measured after 4 days by CellTitre-Glo assay; assay type: functional, cell-based; settings: 96 h
MV4-11 = test: Antiproliferative activity against human MV4-11 cells assessed as cell growth inhibition measured after 3 days by CellTitre-Glo assay; assay type: functional, cell-based; settings: MV4-11, 72 h
[3] = target: T2, Protein cereblon/Bromodomain-containing protein 4 (Homo sapiens) (UniProt O60885+Q96SW2); test: PROTAC activity at CRBN/BRD4-L in human MM1.S cells assessed as induction of protein degradation at 2 nM measured after 24 hrs by Western blot analysis; assay type: cell-based
[4] = target: T1, Bromodomain-containing protein 3; test: Binding affinity to recombinant human BRD3 BD1 (24 to 144 residues) assessed as inhibition constant by fluorescence polarization binding assay
[5] = target: T3, Protein cereblon/Bromodomain-containing protein 3 (Homo sapiens) (UniProt Q15059+Q96SW2); test: PROTAC activity at CRBN/BRD3 in human MM1.S cells assessed as induction of protein degradation at 2 nM measured after 24 hrs by Western blot analysis; assay type: cell-based
[6] = target: T3, Protein cereblon/Bromodomain-containing protein 3 (Homo sapiens); test: PROTAC activity at CRBN/BRD3 in human MCF7 cells assessed as induction of protein degradation at 1 uM measured around 1 to 3 hrs by Western blot analysis; assay type: cell-based; settings: time 1-3 hrs
[7] = target: T4, Protein cereblon/Bromodomain-containing protein 2 (Homo sapiens) (UniProt P25440+Q96SW2); test: PROTAC activity at CRBN/BRD2 in human MV4-11 cells assessed as induction of protein degradation at 0.5 to 10 uM measured after 24 hrs by Western blot analysis; assay type: cell-based; settings: dose 0.5-10 µM
[8] = target: T4, Protein cereblon/Bromodomain-containing protein 2 (Homo sapiens); test: PROTAC activity at CRBN/BRD2 in human MCF7 cells assessed as induction of protein degradation at 1 uM measured around 1 to 3 hrs by Western blot analysis; assay type: cell-based; settings: time 1-3 hrs
[9] = target: T2, Protein cereblon/Bromodomain-containing protein 4 (Homo sapiens); test: PROTAC activity at CRBN/BRD4-L in human MM1.S cells assessed as induction of protein degradation measured after 24 hrs by Western blot analysis; assay type: cell-based
[10] = target: T3, Protein cereblon/Bromodomain-containing protein 3 (Homo sapiens); test: PROTAC activity at CRBN/BRD3 in human MM1.S cells assessed as induction of protein degradation at 1 uM measured after 1 to 24 hrs by Western blot analysis; assay type: cell-based; settings: time 1-24 hrs
A549 = test: Antiproliferative activity against human A549 cells assessed as cell growth inhibition measured after 4 days by CCK-8 assay; assay type: functional, cell-based; settings: A549, 96 h
[11] = target: T3, Protein cereblon/Bromodomain-containing protein 3 (Homo sapiens); test: PROTAC activity at CRBN/BRD3 in human MM1.S cells assessed as induction of protein degradation measured after 24 hrs by Western blot analysis; assay type: cell-based
[12] = target: T3, Protein cereblon/Bromodomain-containing protein 3 (Homo sapiens); test: PROTAC activity at CRBN/BRD3 in human HeLa cells assessed as induction of protein degradation at […] measured after 24 hrs by Western blot analysis; assay type: cell-based; settings: dose lower 1.0 µM
HepG2 = test: Antiproliferative activity against human HepG2 cells assessed as cell growth inhibition measured after 4 days by CCK-8 assay; assay type: functional, cell-based; settings: HepG2, 96 h
[13] = target: T3, Protein cereblon/Bromodomain-containing protein 3 (Homo sapiens); test: PROTAC activity at CRBN/BRD3 in human MV4-11 cells assessed as induction of protein degradation at 0.5 to 10 uM measured after 24 hrs by Western blot analysis; assay type: cell-based; settings: dose 0.5-10 µM
[14] = target: T3, Protein cereblon/Bromodomain-containing protein 3 (Homo sapiens); test: PROTAC activity at CRBN/BRD3 in human MM1.S cells assessed as induction of protein degradation at 1 uM measured around 1 to 3 hrs by Western blot analysis; assay type: cell-based; settings: time 1-3 hrs
[15] = target: T4, Protein cereblon/Bromodomain-containing protein 2 (Homo sapiens); test: PROTAC activity at CRBN/BRD2 in human HGC-27 cells assessed as induction of protein degradation at 1 uM measured around 1 to 3 hrs by Western blot analysis; assay type: cell-based; settings: time 1-3 hrs
[16] = target: T2, Protein cereblon/Bromodomain-containing protein 4 (Homo sapiens); test: PROTAC activity at CRBN/BRD4-L in human MV4-11 cells assessed as induction of protein degradation at 0.5 to 10 uM measured after 24 hrs by Western blot analysis; assay type: cell-based; settings: dose 0.5-10 µM
[17] = target: T2, Protein cereblon/Bromodomain-containing protein 4 (Homo sapiens); test: PROTAC activity at CRBN/BRD4-L in human MCF7 cells assessed as induction of protein degradation at 1 to 50 uM measured after 24 hrs by Western blot analysis; assay type: cell-based; settings: dose 1-50 µM
[18] = target: T3, Protein cereblon/Bromodomain-containing protein 3 (Homo sapiens); test: PROTAC activity at CRBN/BRD3 in human HGC-27 cells assessed as induction of protein degradation at 1 uM measured around 1 to 3 hrs by Western blot analysis; assay type: cell-based; settings: time 1-3 hrs
HeLa = test: Antiproliferative activity against human HeLa cells assessed as cell growth inhibition measured after 4 days by CCK-8 assay; assay type: functional, cell-based; settings: 96 h
[19] = target: T4, Protein cereblon/Bromodomain-containing protein 2 (Homo sapiens); test: PROTAC activity at CRBN/BRD2 in human MM1.S cells assessed as induction of protein degradation at 1 uM measured after 1 to 24 hrs by Western blot analysis; assay type: cell-based; settings: time 1-24 hrs
[20] = target: T2, Protein cereblon/Bromodomain-containing protein 4 (Homo sapiens); test: PROTAC activity at CRBN/BRD4-S in human MV4-11 cells assessed as induction of protein degradation at 0.5 to 10 uM measured after 24 hrs by Western blot analysis; assay type: cell-based; settings: dose 0.5-10 µM
[21] = target: T2, Protein cereblon/Bromodomain-containing protein 4 (Homo sapiens); test: PROTAC activity at CRBN/BRD4-L in human MM1.S cells assessed as induction of protein degradation at 1 uM measured around 1 to 3 hrs by Western blot analysis; assay type: cell-based; settings: time 1-3 hrs
HGC-27 = test: Antiproliferative activity against human HGC-27 cells assessed as cell growth inhibition measured after 4 days by CCK-8 assay; assay type: functional, cell-based; settings: HGC-27, 96 h
MCF7 = test: Antiproliferative activity against human MCF7 cells assessed as cell growth inhibition measured after 4 days by CCK-8 assay; assay type: functional, cell-based; settings: MCF7, 96 h
[22] = target: T4, Protein cereblon/Bromodomain-containing protein 2 (Homo sapiens); test: PROTAC activity at CRBN/BRD2 in human MM1.S cells assessed as induction of protein degradation at 1 uM measured around 1 to 3 hrs by Western blot analysis; assay type: cell-based; settings: time 1-3 hrs
[23] = target: T2, Protein cereblon/Bromodomain-containing protein 4 (Homo sapiens); test: PROTAC activity at CRBN/BRD4-S in human MM1.S cells assessed as induction of protein degradation at 1 uM measured after 1 to 24 hrs by Western blot analysis; assay type: cell-based; settings: time 1-24 hrs
[24] = target: T2, Protein cereblon/Bromodomain-containing protein 4 (Homo sapiens); test: PROTAC activity at CRBN/BRD4-L in human HGC-27 cells assessed as induction of protein degradation at 1 uM measured around 1 to 3 hrs by Western blot analysis; assay type: cell-based; settings: time 1-3 hrs
MM1.S [25] = test: Downregulation of c-Myc expression in human MM1.S cells at 1 uM measured after 1 to 24 hrs by Western blot analysis; assay type: functional, cell-based; settings: time 1-24 hrs
[26] = target: T2, Protein cereblon/Bromodomain-containing protein 4 (Homo sapiens); test: PROTAC activity at CRBN/BRD4-L in human MCF7 cells assessed as induction of protein degradation at 1 uM measured around 1 to 3 hrs by Western blot analysis; assay type: cell-based; settings: time 1-3 hrs
[27] = target: T2, Protein cereblon/Bromodomain-containing protein 4 (Homo sapiens); test: PROTAC activity at CRBN/BRD4-L in human MM1.S cells assessed as induction of protein degradation at 1 uM measured after 1 to 24 hrs by Western blot analysis; assay type: cell-based; settings: time 1-24 hrs
[28] = target: T2, Protein cereblon/Bromodomain-containing protein 4 (Homo sapiens); test: PROTAC activity at CRBN/BRD4-L in human HeLa cells assessed as induction of protein degradation at 1 to 50 uM measured after 24 hrs by Western blot analysis; assay type: cell-based; settings: dose 1-50 µM
[29] = target: T3, Protein cereblon/Bromodomain-containing protein 3 (Homo sapiens); test: PROTAC activity at CRBN/BRD3 in human MCF7 cells assessed as induction of protein degradation at 1 to 50 uM measured after 24 hrs by Western blot analysis; assay type: cell-based; settings: dose 1-50 µM
[30] = target: T3, Protein cereblon/Bromodomain-containing protein 3 (Homo sapiens); test: PROTAC activity at CRBN/BRD3 in human MM1.S cells assessed as induction of protein degradation at 2 to 10 nM measured after 24 hrs by Western blot analysis; assay type: cell-based; settings: dose 2-10 nM
[31] = target: T4, Protein cereblon/Bromodomain-containing protein 2 (Homo sapiens); test: PROTAC activity at CRBN/BRD2 in human MM1.S cells assessed as induction of protein degradation at 2 to 10 nM measured after 24 hrs by Western blot analysis; assay type: cell-based; settings: dose 2-10 nM
[32] = target: T2, Protein cereblon/Bromodomain-containing protein 4 (Homo sapiens); test: PROTAC activity at CRBN/BRD4-L in human MM1.S cells assessed as induction of protein degradation at 2 to 10 nM measured after 24 hrs by Western blot analysis; assay type: cell-based; settings: dose 2-10 nM
[33] = target: T2, Protein cereblon/Bromodomain-containing protein 4 (Homo sapiens); test: PROTAC activity at CRBN/BRD4-S in human MM1.S cells assessed as induction of protein degradation at 2 to 10 nM measured after 24 hrs by Western blot analysis; assay type: cell-based; settings: dose 2-10 nM

T1 sequence (Q15059 whole entry, the tested form may be a part): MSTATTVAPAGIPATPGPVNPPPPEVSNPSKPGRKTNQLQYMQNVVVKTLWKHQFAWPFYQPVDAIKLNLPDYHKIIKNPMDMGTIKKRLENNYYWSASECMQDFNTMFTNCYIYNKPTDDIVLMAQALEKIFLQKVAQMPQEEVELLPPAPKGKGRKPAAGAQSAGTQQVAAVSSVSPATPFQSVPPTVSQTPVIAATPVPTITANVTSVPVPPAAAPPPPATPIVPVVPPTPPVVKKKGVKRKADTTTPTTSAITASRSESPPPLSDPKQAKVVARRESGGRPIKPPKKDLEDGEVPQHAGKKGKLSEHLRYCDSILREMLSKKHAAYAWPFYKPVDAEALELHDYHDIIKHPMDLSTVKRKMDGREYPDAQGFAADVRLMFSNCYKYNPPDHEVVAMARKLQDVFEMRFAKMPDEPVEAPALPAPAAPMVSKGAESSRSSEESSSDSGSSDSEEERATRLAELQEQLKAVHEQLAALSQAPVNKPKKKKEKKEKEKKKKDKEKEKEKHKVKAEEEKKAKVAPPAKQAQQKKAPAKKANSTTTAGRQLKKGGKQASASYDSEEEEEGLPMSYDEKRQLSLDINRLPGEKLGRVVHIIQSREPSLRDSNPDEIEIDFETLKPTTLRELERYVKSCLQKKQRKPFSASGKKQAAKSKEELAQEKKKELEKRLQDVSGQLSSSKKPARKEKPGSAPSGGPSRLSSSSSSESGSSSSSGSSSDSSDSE
T2 sequence (Q96SW2 whole entry, looked up, other chains not shown, the tested form may be a part): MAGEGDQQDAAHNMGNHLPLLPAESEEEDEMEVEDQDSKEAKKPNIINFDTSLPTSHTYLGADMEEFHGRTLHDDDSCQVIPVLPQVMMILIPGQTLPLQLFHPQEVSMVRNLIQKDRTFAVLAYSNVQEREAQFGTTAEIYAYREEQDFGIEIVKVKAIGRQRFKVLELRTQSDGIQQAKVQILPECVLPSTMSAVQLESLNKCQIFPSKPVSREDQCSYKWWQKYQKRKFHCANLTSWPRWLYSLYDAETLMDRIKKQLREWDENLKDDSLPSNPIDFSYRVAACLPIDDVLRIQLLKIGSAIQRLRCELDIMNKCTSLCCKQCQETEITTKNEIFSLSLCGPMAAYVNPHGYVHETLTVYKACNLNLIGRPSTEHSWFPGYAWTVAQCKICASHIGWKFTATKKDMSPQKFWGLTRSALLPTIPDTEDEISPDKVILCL
T4 sequence (P25440 whole entry, looked up): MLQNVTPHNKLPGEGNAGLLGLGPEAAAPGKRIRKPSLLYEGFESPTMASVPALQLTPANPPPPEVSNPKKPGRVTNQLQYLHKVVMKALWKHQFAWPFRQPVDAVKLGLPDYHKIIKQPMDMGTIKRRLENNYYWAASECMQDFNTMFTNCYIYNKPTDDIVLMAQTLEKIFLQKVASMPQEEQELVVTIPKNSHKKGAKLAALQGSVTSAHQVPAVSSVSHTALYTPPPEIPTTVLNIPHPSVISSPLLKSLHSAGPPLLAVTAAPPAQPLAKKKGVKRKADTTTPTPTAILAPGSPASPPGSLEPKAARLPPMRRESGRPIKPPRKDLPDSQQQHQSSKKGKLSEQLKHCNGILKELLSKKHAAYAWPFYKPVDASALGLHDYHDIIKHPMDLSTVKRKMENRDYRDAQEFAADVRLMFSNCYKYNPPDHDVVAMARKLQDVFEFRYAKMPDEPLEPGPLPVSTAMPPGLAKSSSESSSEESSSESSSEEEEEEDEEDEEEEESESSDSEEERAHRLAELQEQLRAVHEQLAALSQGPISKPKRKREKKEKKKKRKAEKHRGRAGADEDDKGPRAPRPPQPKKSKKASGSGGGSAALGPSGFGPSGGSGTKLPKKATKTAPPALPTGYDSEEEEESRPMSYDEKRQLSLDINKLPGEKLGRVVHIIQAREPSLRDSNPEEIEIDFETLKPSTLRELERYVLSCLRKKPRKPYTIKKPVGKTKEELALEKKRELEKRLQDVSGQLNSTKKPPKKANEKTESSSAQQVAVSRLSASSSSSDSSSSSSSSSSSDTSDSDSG
T4 sequence (Q96SW2 whole entry, looked up): as the sequence (Q96SW2 whole entry, looked up, other chains not shown, the tested form may be a part) above
T3 sequence (Q15059 2-726 limits assumed): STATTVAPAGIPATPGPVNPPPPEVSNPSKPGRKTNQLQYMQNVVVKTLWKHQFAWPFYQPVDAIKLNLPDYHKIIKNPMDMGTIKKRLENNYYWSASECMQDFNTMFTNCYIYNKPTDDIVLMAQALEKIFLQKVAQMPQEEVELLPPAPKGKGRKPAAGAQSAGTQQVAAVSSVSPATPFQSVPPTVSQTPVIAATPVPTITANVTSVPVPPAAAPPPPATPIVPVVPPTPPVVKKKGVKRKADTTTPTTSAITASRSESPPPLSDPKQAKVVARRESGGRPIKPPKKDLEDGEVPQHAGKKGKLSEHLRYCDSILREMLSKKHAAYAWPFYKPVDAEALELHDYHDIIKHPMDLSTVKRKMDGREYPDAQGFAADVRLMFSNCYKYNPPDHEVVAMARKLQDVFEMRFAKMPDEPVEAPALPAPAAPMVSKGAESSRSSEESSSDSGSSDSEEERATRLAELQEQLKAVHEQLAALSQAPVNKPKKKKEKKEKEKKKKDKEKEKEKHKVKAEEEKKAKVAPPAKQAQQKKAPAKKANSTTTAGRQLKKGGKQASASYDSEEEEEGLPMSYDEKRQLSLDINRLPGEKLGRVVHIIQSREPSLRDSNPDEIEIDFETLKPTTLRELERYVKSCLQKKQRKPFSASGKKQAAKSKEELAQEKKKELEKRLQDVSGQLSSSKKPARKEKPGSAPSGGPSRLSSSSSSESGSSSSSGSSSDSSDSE
T3 sequence (Q96SW2 whole entry partner): as the sequence (Q96SW2 whole entry, looked up, other chains not shown, the tested form may be a part) above

Ki [1]: 0.00542 µM
IC50 (MM1.S [2]): 0.818 µM
IC50 (MV4-11): 0.233 µM
Activity [3]: Active
Ki [4]: 0.0155 µM
Activity [5]: Active
SMILES: Cc1nnc2n1-c1ccc(-c3ccc(CNCCCCCc4cccc5c4CN(C4CCC(=O)NC4=O)C5=O)cc3)cc1C(Nc1ccc(Cl)cc1)CC2 (stereo unspecified)

Ki [1]: 0.00504 µM
IC50 (MM1.S [2]): 1.31 µM
IC50 (MV4-11): 0.649 µM
Ki [4]: 0.048 µM
SMILES: Cc1nnc2n1-c1ccc(-c3ccc(CNCCCC#Cc4cccc5c4CN(C4CCC(=O)NC4=O)C5=O)cc3)cc1C(Nc1ccc(Cl)cc1)CC2 (stereo unspecified)

Ki [1]: 0.00473 µM
IC50 (MM1.S [2]): 0.158 µM
IC50 (MV4-11): 0.0714 µM
Ki [4]: 0.0121 µM
SMILES: Cc1nnc2n1-c1ccc(-c3ccc(CNCCCCC#Cc4cccc5c4CN(C4CCC(=O)NC4=O)C5=O)cc3)cc1C(Nc1ccc(Cl)cc1)CC2 (stereo unspecified)

Activity [6]: Active
Activity [7]: Active
Activity [8]: Active
Ki [1]: 0.00526 µM
Activity [9]: Dose-Dependent Effect
Activity [10]: Active
IC50 (MM1.S [2]): 2.47 µM
IC50 (MV4-11): 0.0118 µM
IC50 (A549): 12.3 µM
Activity [11]: Dose-Dependent Effect
Activity [12]: Active
IC50 (HepG2): 19.8 µM
Activity [13]: Active
Activity [14]: Active
Activity [15]: Active
Activity [16]: Active
Ki [4]: 0.00728 µM
Activity [17]: Active
Activity [18]: Active
IC50 (HeLa): 16.1 µM
Activity [19]: Active
Activity [20]: Active
Activity [21]: Active
IC50 (MCF7): 5.3 µM
Activity [22]: Active
Activity [23]: inactive
Activity [24]: Active
Activity [26]: Active
Activity [27]: Active
Activity [28]: Active
Activity [29]: Active
SMILES: Cc1sc2c(c1C)C(c1ccc(Cl)cc1)=N[C@@H](CC(=O)NCCCCNC(=O)COc1cccc3c1C(=O)N(C1CCC(=O)NC1=O)C3=O)c1nnc(C)n1-2 (stereo partly specified)
IC50 (HGC-27): 0.88 µM
Activity (MM1.S [25]): Active

Ki [1]: 0.00246 µM
IC50 (MM1.S [2]): 2.83 µM
IC50 (MV4-11): 1.01 µM
Activity [30]: inactive
Activity [31]: inactive
Ki [4]: 0.0185 µM
Activity [32]: inactive
Activity [33]: inactive
SMILES: Cc1nnc2n1-c1ccc(-c3ccc(CNCCCc4cccc5c4CN(C4CCC(=O)NC4=O)C5=O)cc3)cc1C(Nc1ccc(Cl)cc1)CC2 (stereo unspecified)

Ki [1]: 0.00629 µM
IC50 (MM1.S [2]): 1.59 µM
IC50 (MV4-11): 0.178 µM
Activity [30]: inactive
Activity [31]: inactive
Ki [4]: 0.0329 µM
Activity [32]: inactive
Activity [33]: inactive
SMILES: Cc1nnc2n1-c1ccc(-c3cnn(CC(=O)NCCCCCC#Cc4cccc5c4CN(C4CCC(=O)NC4=O)C5=O)c3)cc1C(Nc1ccc(Cl)cc1)CC2 (stereo unspecified)

Ki [1]: 0.0472 µM
IC50 (MM1.S [2]): 3.79 µM
IC50 (MV4-11): 1.22 µM
Ki [4]: 0.267 µM
SMILES: CNCc1ccc(-c2ccc3c(c2)C(Nc2ccc(Cl)cc2)CCc2nnc(C)n2-3)cc1 (stereo unspecified)

Ki [1]: 0.00481 µM
IC50 (MM1.S [2]): 2.62 µM
IC50 (MV4-11): 0.69 µM
Ki [4]: 0.0246 µM
SMILES: Cc1nnc2n1-c1ccc(-c3ccc(CNCC#Cc4cccc5c4CN(C4CCC(=O)NC4=O)C5=O)cc3)cc1C(Nc1ccc(Cl)cc1)CC2 (stereo unspecified)
